In patent US6831199B1, “Pyrimidine compounds and derivatives thereof” (G. D. Searle & Co., priority 1995, dated 2004):
Where a name gives a salt, the structure may show the parent alone. Read-outs that look alike come from different tables or passages of the source.

Legend:
[1] = molecular target: T1, Human vitronectin receptor (αvβ3) (Homo sapiens, UniProt P05106+P06756); experiment: Vitronectin adhesion assay (solid phase receptor assay, competition with biotinylated vitronectin); type: binding
T1 construct: Human vitronectin receptor (αvβ3) was purified from human placenta; from tissue; host or cells: human placenta
In short: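 Purified human αvβ3 coated overnight at 4 °C in TBS with 1.0 mM Ca++, Mg++, Mn++, pH 7.4; compounds (top final 1.0×10^−4 M) competed with 1 nM biotinylated vitronectin for 2 h at room temperature. Bound ligand detected by HRP anti-biotin/OPD at A450; values normalized to no-competitor controls, four-parameter curve fit.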

[2] = molecular target: T2, Human fibrinogen receptor (αIIbβ3) (Homo sapiens, UniProt P05106+P08514); experiment: Purified IIb/IIIa receptor assay (solid phase receptor assay, competition with biotinylated vitronectin); type: binding
T2 construct: Human fibrinogen receptor (αIIbβ3) was purified from outdated platelets; from tissue; host or cells: outdated human platelets
In short: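 Purified platelet αIIbβ3 coated overnight at 4 °C in TBS with 1.0 mM Ca/Mg/Mn, pH 7.4, then BSA-blocked. Compounds (top 1.0×10^−4 M) competed with 1 nM biotinylated vitronectin for 2 h at room temperature. Bound label detected by HRP anti-biotin, A450; values normalized to no-competitor controls, four-parameter fit.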

[3] = tested on: platelet rich plasma; experiment: Human platelet rich plasma assay (ADP induced platelet aggregation); type: cell-based; settings: read-out: Human PRP
In short: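 Citrated platelet-rich plasma from aspirin-free healthy human donors was stirred at 37 °C and preincubated with compound for 1 min. Aggregation was then triggered with ADP (added as a 200 uM solution) and recorded photometrically for 3 min. Dose–response curves were built from % inhibition of the maximal saline-control response.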

[4] = tested on: M21 human melanoma cells; experiment: M21 melanoma cell adhesion assay (αvβ3-dependent adhesion to human fibrinogen-coated plates); type: cell-based
Description: M21 MELANOMA CELL ADHESION ASSASY
This assay involves an αvβ3-dependent adhesion of M21 human melanoma cells to human fibrinogen-coated plastic tissue culture dishes.
Fibrinogen was purified from human plasma. Fibronectin and plasminogen were eliminated from the preparation by passing the sample over gelatin-sepharose 4B and lysine-sepharose 4B resins, respectively. The fibrinogen is diluted to 10 μg/mL in coating buffer ([…] Tris-HCl, 150 mM NaCl, pH 7.4). 100 μL of diluted fibrinogen is added to each well of a 96-well Immulon 2 microtiter plate (Dynatech; Chantilly, Va.) and allowed to coat overnight at 4° C. Plates are blocked with 1% BSA (Miles/Pentex; Kankakee, Ill.) in adhesion buffer (Hank's balanced salt solution without Ca^++ or Mg^++ [HBSS−−], 50 mM Hepes, 1 mg/mL BSA, pH 7.4) for 1 hour at 37° C.
M21 human melanoma cells were provided by Dr. J. Smith, La Jolla Cancer Research Institute. M21 cells are harvested from tissue culture flasks by washing with HBSS−− and adding cell dissociation solution (Sigma) and incubating for 5 minutes at 37° C. Harvested cells are washed 3 times with adhesion assay buffer containing 200 μM Mn^++. Cells are counted and suspended to a density of 2×10^6/mL in adhesion assay buffer containing 200 μM Mn^++. M21 cells are pre-incubated with antagonists of αvβ3 for 30 minutes at room temperature. Following the pre-incubation, the solutions containing a mixture of cells and antagonists are added to each well of the microtiter plate and allowed to bind for 30 minutes at 37° C.
Following adhesion, plates are gently washed 3 times with 200 μL of wash buffer (50 mM Tris-HCl, 150 mM NaCl, pH 7.4) using large bore pipet tips. Plates are briefly blotted dry and 100 μL of cell lysis buffer (50 mM sodium acetate, pH 5.0, 0.5% Triton X-100, 0.3 mg/mL p-nitrophenyl phosphate [Sigma] is added to each well. Plates are incubated for 60 minutes at 37° C. and 50 μL of 1N NaOH is added to stop the reaction. The absorbance of the wells at […] is read using an automatic plate reader.

[5] = Homo sapiens, M21, read-out: M21 Melanoma Cells IC50
[6] = ADP induced platelet aggregation in human platelet rich plasma
[7] = trifluoroacetate salt; read-out: M21 Melanoma Cells IC50
[8] = Homo sapiens, M21; read-out: M21 Melanoma Cells IC50
[9] = Homo sapiens, Platelet, ADP induced platelet aggregation in human platelet rich plasma

| SMILES | IC50 ([1]; read-out: AvB3 IC50) | IC50 ([2]; read-out: IIb/IIIa IC50) | IC50 [3, 9] | also measured |
| --- | --- | --- | --- | --- |
| N=C(N)Nc1cccc(C(=O)NCC(=O)N[C@H](COC(=O)c2ccccc2N)CC(=O)O)c1 [Example 94, 2S-[[2-[[[3-[[aminoiminomethyl]amino]phenyl]carbonyl]amino]acetyl]amino]-3-carboxypropyl 2-aminobenzoate, bis(trifluoroacetate)salt, monohydrate] | – | – | – | IC50 ([1]; AvB3 IC50): 1.16 nM; IC50 ([2]; IIb/IIIa IC50): 101 nM; IC50 ([3]; Homo sapiens, Platelet): > 200 µM; IC50 [4, 5]: 1 nM |
| NC(=O)Nc1cccc(C(=O)NCC(=O)NC(CC(=O)O)c2cccnc2)c1 (stereo not drawn) [Example 110, β-[[2-[[[3-(aminocarbonylamino)phenyl]carbonyl]amino]acetyl]amino]pyridine-3-propanoic acid, trifluoroacetate salt] | 4.5 nM | 1860 nM | – | IC50 [3, 6]: > 200 µM; IC50 [4, 7]: 177 nM |
| C#C[C@H](CC(=O)O)NC(=O)CNC(=O)c1cccc(NC(=N)N)c1 [Example 69, 3S-[[2-[[[3-[(aminoiminomethyl)amino]phenyl]carbonyl]amino]acetyl]amino]-4-pentynoic acid, trifluoroacetate salt] | 0.92 nM | 33.6 nM | – | IC50 ([3]; ADP induced platelet aggregation in human platelet rich plasma, trifluoroacetate salt): > 200 µM; IC50 [4, 7]: 0.95 nM |
| N=C(N)Nc1cccc(C(=O)NCC(=O)NC(CC(=O)O)c2cccnc2)c1 (racemic) [Example 2, (±)β-[[2-[[[3-[(aminoiminomethyl)amino]phenyl]carbonyl]amino]acetyl]amino]pyridine-3-propanoic acid, bis(trifluoroacetate)salt] | 0.54 nM | 51.2 nM | – | IC50 ([3]; Homo sapiens, Platelet): 200 µM; IC50 [4, 5]: 0.25 nM |
| CCOC(=O)CC(NC(=O)CNC(=O)c1cccc(NC(=N)N)c1)c1ccccc1 (racemic) [Example 3, (±)ethyl β-[[2-[[[3-[(aminoiminomethyl)amino]phenyl]carbonyl]amino]acetyl]amino]benzenepropanoate, trifluoroacetate salt] | 498 nM | 72900 nM | – | IC50 [4, 8]: 3050 nM |
| N=C(N)Nc1cccc(C(=O)NCC(=O)NCCC(=O)O)c1 [Example 97, N-[2-[[[3-[(aminoiminomethyl)amino]phenyl]carbonyl]amino]acetyl]-β-alanine] | 26.9 nM | 1170 nM | – | IC50 [4, 8]: 163 nM |
| O=C(O)CC(NC(=O)CNC(=O)c1cccc(NC(=O)NCc2ccccc2)c1)c1cccnc1 (racemic) [Example 106, (±)β-[[2-[[[3-[[[(phenylmethyl)amino]carbonyl]aminophenyl]carbonyl]amino]acetyl]-amino]pyridine-3-propanoic acid] | 0.79 nM | 3140 nM | – | IC50 ([4]; read-out: M21 Melanoma Cells IC50): 0.81 nM |
| C#C[C@@H](CC(=O)O)NC(=O)CNC(=O)c1cccc(NC(=N)N)c1 [Example 70, 3R-[[2-[[[3-[(aminoiminomethyl)amino]phenyl]carbonyl]amino]acetyl]amino]-4-pentynoic acid, trifluoroacetate salt] | 63 nM | 3240 nM | – | IC50 [3, 6]: > 200 µM; IC50 [4, 7]: 924 nM |
| O=C(O)CC(NC(=O)CNC(=O)c1cccc(NC(=O)NCc2ccccc2)c1)c1ccccc1 (stereo not drawn) [Example 119, β-[[2-[[[3-[[[(phenylmethyl)amino]carbonyl]amino]phenyl]carbonyl]amino]acetyl]amino]benzenepropanoic acid] | 3.61 nM | 11100 nM | – | IC50 ([3]; Homo sapiens, Platelet): > 20 µM; IC50 [4, 5]: 90.4 nM |
| O=C(O)CC(NC(=O)CNC(=O)c1cccc(NC(=O)NCc2cccnc2)c1)c1cccnc1 (stereo not drawn) [Example 127, β-[[2-[[[3-[[[3-pyridinylmethyl)amino]carbonyl]amino]phenyl]carbonyl]amino]acetyl]amino]pyridine-3-propanoic acid, bis trifluoroacetate salt] | 0.51 nM | 461 nM | > 200 µM | – |
| N=C(N)Nc1cccc(C(=O)NCC(=O)NC(CC(=O)O)c2cc(Br)cc(Br)c2O)c1 (racemic) [Example 227, (±)β-[[2-[[[3-[(aminoiminomethyl)amino]phenyl]carbonyl]amino]acetyl]amino]-3,5-dibromo-2-hydroxybenzenepropanoic acid, trifluoroacetate salt, monohydrate] | 14.1 nM | 2640 nM | > 200 µM | – |
| COc1ccc(C(CC(=O)O)NC(=O)CNC(=O)c2cccc(NC(=N)N)c2)c(O)c1 (racemic) [Example 222, (±)β-[[2-[[[3-[(aminoiminomethyl)amino]phenyl]carbonyl]amino]acetyl]amino]-2-hydroxy-4-methoxybenzenepropanoic acid] | 2.02 nM | 112 nM | > 200 µM | – |
| O=C(O)CC(NC(=O)CNC(=O)c1ccc(Cl)c(NC2=NCCCCC2)c1)c1cccnc1 (racemic) [Example 21, (±)β-[[2-[[[4-chloro-3-[(3,4,5,6-tetrahydro-2H-azepin-7-yl)amino]phenyl]carbonyl]amino]acetyl]amino]pyridine-3-propanoic acid, bis TFA Salt] | 2.44 nM | 1910 nM | > 200 µM | – |
| N=C(N)Nc1cccc(C(=O)NCC(=O)NC(CC(=O)O)c2cc(Br)ccc2O)c1 (racemic) [Example 228, (±)β-[[2-[[[3-[(aminoiminomethyl)amino]phenyl]carbonyl]amino]acetyl]amino]-5-bromo-2-hydroxybenzenepropanoic acid, trifluoroacetate salt, monohydrate] | 3.36 nM | 583 nM | > 200 µM | – |
| N=C(N)Nc1cccc(C(=O)NCC(=O)NC(CC(=O)O)c2cc([N+](=O)[O-])ccc2O)c1 (racemic) [Example 226, (±)β-[[2-[[[3-[(aminoiminomethyl)amino]phenyl]carbonyl]amino]acetyl]amino]-2-hydroxy-5-nitrobenzenepropanoic acid, trifluoroacetate salt] | 7.07 nM | 2910 nM | > 200 µM | – |
